We go through seven compounds from patent publication US9290477B2, “Inhibitors of β-secretase” (Vitae Pharmaceuticals, Inc., priority 2012, dated 2016).

Assay [1] deals with truncated human beta-secretase, BACE1 (amino acids 1-454) (Homo sapiens (Human), UniProt P56817). The assay can be described thus: BACE1 Assay (Assay 1), fluorescence quench assay. Type of assay: biochemical. The settings on record: Table 1; pH 4.4, 1 μM substrate peptide; read-out: BACE 1 IC50 nM (Assay 1). How it is done:
The substrate was dissolved at 1 mg/ml in DMSO.
The assay was performed in the presence of OptiMEM™ (supernatant collected over 24 h and cleared from cellular debris by centrifugation) containing the ectodomain of BACE1, 25 μl water containing the desired 2-fold concentration of test compound and 2% DMSO, 1 μM substrate peptide, 20 mM NaOAc, pH 4.4, and 0.04% Triton-X100 in a total assay volume of 50 μl in a 384 well plate. In general, 25 μl of compound dilution were added to the plate followed by the addition of 10 μl of BACE1 containing OptiMEM™ diluted 1:10 in water with 0.2% Triton X-100. The reaction was started with the addition of 15 μl substrate in NaOAc buffer. The reaction was incubated at rt (dark) in an Envision® multilabel reader (Perkin Elmer) and the cleavage of the substrate was recorded as kinetic for 60 min at ex: 485 nm, em: 538 nm. Blank wells containing no enzyme were included on each plate.
The intensity of fluorescence was regressed against time in order to derive velocities of reaction in all 384 wells. These velocities were used for calculating percent control using an uninhibited control containing 1% DMSO as 100% and a blank control performed in the absence of enzyme as 0%. IC50 values were calculated by fitting percent control vs. test compound concentration using Assay Explorer®.

The test system of assay [2] is Abeta1-x production in H4 neuroglioma cell line stably expressing human APP. As to the kind of experiment: H4-APPwt Cell-Based Assay (Assay 2), production of Abeta1-x peptides. The settings on record: Table 1; H4 cells expressing human APP, Abeta1-x by AlphaLISA, 18 h. As for the experimental part:
Cellular potency of the compounds was assessed in an assay monitoring production of Abeta1-x peptides in the H4 neuroglioma cell line (ATCC, Cat. #HTB-148) stably expressing human APP. Tested compounds were dissolved in DMSO and pre-diluted in the culture medium (DMEM containing 10% FBS and 1% penicillin/streptomycin) to achieve twice the final concentration of the compounds in the assay. Equal volumes of the 2× solutions of the tested compounds and cell suspension were added to a 96-well culture plate, so that each well contained ˜10,000 cells in a final volume of 200 μl. Final concentration of DMSO in the assay was 0.2%. The plates were incubated for 5 h at 37° C., 5% CO2 to allow cells to attach to the bottom of the wells in the presence of the tested compounds. The media was removed and replaced with fresh media containing tested compounds at the same final concentration. The plates were incubated for 18 h at 37° C., 5% CO2. Concentrations of Ab1-x were determined using AlphaLISA immunoassay (PerkinElmer, Cat. # AL288) following the manufacturer's protocol. Concentrations of Abeta1-x in the wells containing either DMSO or 10 μM beta-secretase inhibitor (BACE inhibitor IV, EMD Bioscience, Cat. #565788) were used as uninhibited and background controls, respectively, for calculating percent inhibition values for each well with the tested compounds.

The structures appear in SMILES notation.

truncated human beta-secretase, BACE1 (amino acids 1-454), sequence (P56817 22-454): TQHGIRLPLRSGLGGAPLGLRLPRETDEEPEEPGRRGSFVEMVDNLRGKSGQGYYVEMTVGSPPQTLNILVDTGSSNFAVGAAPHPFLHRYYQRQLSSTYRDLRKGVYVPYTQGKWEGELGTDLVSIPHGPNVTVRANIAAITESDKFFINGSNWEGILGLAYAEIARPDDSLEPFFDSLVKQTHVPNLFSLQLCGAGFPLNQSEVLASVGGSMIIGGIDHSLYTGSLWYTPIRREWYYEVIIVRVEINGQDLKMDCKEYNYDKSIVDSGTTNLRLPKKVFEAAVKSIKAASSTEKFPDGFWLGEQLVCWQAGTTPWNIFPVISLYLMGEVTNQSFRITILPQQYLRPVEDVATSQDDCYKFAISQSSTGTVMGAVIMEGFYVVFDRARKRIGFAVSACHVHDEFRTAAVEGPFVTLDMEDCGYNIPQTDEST

In the case of `CO[C@H]1[C@H](C)C[C@@]2(Cc3ccc(Br)cc3[C@@]23N=C(C)C(N)=N3)C[C@@H]1C` [Example 1], the IC50 in assay [1] was found to be 4 nM; in assay [2] it was 4.5 nM. Taken in the same sequence, the figures for `CO[C@H]1[C@H](C)C[C@@]2(Cc3ccc(C#N)cc3[C@@]23N=C(C)C(N)=N3)C[C@@H]1C` [Example 2] were 3.5 nM and 4 nM. Taken in the same sequence, the figures for `CC1=N[C@]2(N=C1N)c1cc(C#N)ccc1C[C@@]21C[C@@H](C)[C@H](O)[C@@H](C)C1` [Example 3] were 37 nM and 34 nM.

Consider `CO[C@H]1CC[C@@]2(Cc3ccc(Br)cc3C23N=C(C)C(N)=N3)C[C@@H]1C` (stereo partly shown) [Example 4], for which the midpoint of inhibition in assay [2], the IC50, lay at 6.2 nM.

Regarding `CO[C@H]1CC[C@@]2(Cc3ccc(C#N)cc3[C@@]23N=C(C)C(N)=N3)C[C@@H]1C` [Example 5], the IC50 in assay [1] came out at 1.5 nM; in assay [2] it was 2 nM. For `CO[C@H]1[C@H](C)C[C@@]2(Cc3ccc(-c4cncc(F)c4)cc3[C@@]23N=C(C)C(N)=N3)C[C@@H]1C` [Example 6], in that order: 1.5 nM and 0.6 nM. Take `CC#Cc1cncc(-c2ccc3c(c2)[C@@]2(N=C(C)C(N)=N2)[C@@]2(C3)C[C@@H](C)[C@H](OC)[C@@H](C)C2)c1` [Example 7]: the figures for the IC50 in assay [1] and in assay [2] were 8.2 nM and 4 nM, respectively.

Usually IC50 stands for the concentration at which inhibition is half-maximal.
